Measured values as given in ChEMBL document CHEMBL3885861, “Open TG-GATES”.

Species: Rattus norvegicus
Assay: Open TG-GATES - Regimen: Single
Type: toxicity, organism-based, Sprague-Dawley
Parameters: regimen Single, gender Male, age 6 weeks
Details: in vivo, po, 15 mg/kg, route gavage, dose level Low; for APTT / Bas / Eos / Fbg / Hb / Ht / Lym / MCH / MCHC / MCV / Mono / Neu / PT / Plat / RBC / Ret / WBC: tissue Blood; for KIDNEY_L / KIDNEY_R / KIDNEY_TOTAL: tissue Kidney; for LIVER: tissue Liver; for A/G / ALP / ALT / AST / BUN / CRE / Ca / Cl / DBIL / GLC / IP / K / LDH / Na / PL / RALB / TBIL / TC / TG / TP / gamma-GTP: tissue Plasma

O=c1ccc2ccccc2o1 [COUMARIN]
TERMINAL_BW (3 h): 178.4 g
APTT (3 h): 16.5 s
Bas (3 h): 0%
Eos (3 h): 1%
Fbg (3 h): 205.2 mg/dL
Hb (3 h): 13.6 g/dL
Ht (3 h): 40.8%
Lym (3 h): 82.2%
MCH (3 h): 21.3 pg
MCHC (3 h): 33.4%
MCV (3 h): 63.7 fL
Mono (3 h): 3.8%
Neu (3 h): 13.4%
PT (3 h): 12.4 s
Plat (3 h): 97.1 x10_4/uL
RBC (3 h): 640 x10_4/ul
Ret (3 h): 8.2%
WBC (3 h): 97 x10_2/uL
KIDNEY_L (3 h): 0.8 g
KIDNEY_R (3 h): 0.8 g
KIDNEY_TOTAL (3 h): 1.7 g
LIVER (3 h): 8 g
A/G (3 h): 2
ALP (3 h): 1069.4 IU/L
ALT (3 h): 41.6 IU/L
AST (3 h): 71.8 IU/L
BUN (3 h): 10.2 mg/dL
CRE (3 h): 0.4 mg/dL
Ca (3 h): 10.6 mg/dL
Cl (3 h): 105.6 meq/L
DBIL (3 h): 0.006 mg/dL
GLC (3 h): 182.4 mg/dL
IP (3 h): 10.4 mg/dL
K (3 h): 4.7 meq/L
LDH (3 h): 84.8 IU/L
Na (3 h): 138 meq/L
PL (3 h): 161.6 mg/dL
RALB (3 h): 3.9 g/dL
TBIL (3 h): 0.4 mg/dL
TC (3 h): 86 mg/dL
TG (3 h): 115 mg/dL
TP (3 h): 5.9 g/dL
gamma-GTP (3 h): 1.4 IU/L
TERMINAL_BW (6 h): 180.2 g
APTT (6 h): 16.4 s
Bas (6 h): 0%
Eos (6 h): 1.2%
Fbg (6 h): 189.2 mg/dL
Hb (6 h): 13.5 g/dL
Ht (6 h): 40.5%
Lym (6 h): 76%
MCH (6 h): 21.9 pg
MCHC (6 h): 33.2%
MCV (6 h): 65.9 fL
Mono (6 h): 5%
Neu (6 h): 18.4%
PT (6 h): 12.5 s
Plat (6 h): 109.6 x10_4/uL
RBC (6 h): 614.6 x10_4/ul
Ret (6 h): 9.4%
WBC (6 h): 95.4 x10_2/uL
KIDNEY_L (6 h): 0.8 g
KIDNEY_R (6 h): 0.8 g
KIDNEY_TOTAL (6 h): 1.7 g
LIVER (6 h): 8 g
A/G (6 h): 2.1
ALP (6 h): 872 IU/L
ALT (6 h): 33.6 IU/L
AST (6 h): 65 IU/L
BUN (6 h): 9 mg/dL
CRE (6 h): 0.4 mg/dL
Ca (6 h): 10.3 mg/dL
Cl (6 h): 107.2 meq/L
DBIL (6 h): 0.004 mg/dL
GLC (6 h): 189.6 mg/dL
IP (6 h): 10.4 mg/dL
K (6 h): 5.2 meq/L
LDH (6 h): 88 IU/L
Na (6 h): 138 meq/L
PL (6 h): 136 mg/dL
RALB (6 h): 3.7 g/dL
TBIL (6 h): 0.3 mg/dL
TC (6 h): 75.2 mg/dL
TG (6 h): 63 mg/dL
TP (6 h): 5.5 g/dL
gamma-GTP (6 h): 1.2 IU/L
TERMINAL_BW (9 h): 177.8 g
APTT (9 h): 16.1 s
Bas (9 h): 0%
Eos (9 h): 0.8%
Fbg (9 h): 198.2 mg/dL
Hb (9 h): 13.2 g/dL
Ht (9 h): 40.1%
Lym (9 h): 78.2%
MCH (9 h): 22 pg
MCHC (9 h): 33%
MCV (9 h): 66.6 fL
Mono (9 h): 6.4%
Neu (9 h): 14.6%
PT (9 h): 12.3 s
Plat (9 h): 103 x10_4/uL
RBC (9 h): 602 x10_4/ul
Ret (9 h): 8.7%
WBC (9 h): 85.8 x10_2/uL
KIDNEY_L (9 h): 0.8 g
KIDNEY_R (9 h): 0.9 g
KIDNEY_TOTAL (9 h): 1.7 g
LIVER (9 h): 7.2 g
A/G (9 h): 2.3
ALP (9 h): 849 IU/L
ALT (9 h): 30.6 IU/L
AST (9 h): 62 IU/L
BUN (9 h): 9.8 mg/dL
CRE (9 h): 0.5 mg/dL
Ca (9 h): 10.6 mg/dL
Cl (9 h): 106.8 meq/L
DBIL (9 h): 0.03 mg/dL
GLC (9 h): 195 mg/dL
IP (9 h): 11.6 mg/dL
K (9 h): 5.1 meq/L
LDH (9 h): 102 IU/L
Na (9 h): 139.4 meq/L
PL (9 h): 141 mg/dL
RALB (9 h): 3.8 g/dL
TBIL (9 h): 0.3 mg/dL
TC (9 h): 81.4 mg/dL
TG (9 h): 37.4 mg/dL
TP (9 h): 5.5 g/dL
gamma-GTP (9 h): 1.2 IU/L
TERMINAL_BW (24 h): 189.8 g
APTT (24 h): 15.7 s
Bas (24 h): 0%
Eos (24 h): 1%
Fbg (24 h): 208.2 mg/dL
Hb (24 h): 13.2 g/dL
Ht (24 h): 39.7%
Lym (24 h): 74.2%
MCH (24 h): 22.3 pg
MCHC (24 h): 33.3%
MCV (24 h): 66.9 fL
Mono (24 h): 10.6%
Neu (24 h): 14.2%
PT (24 h): 12.2 s
Plat (24 h): 102.6 x10_4/uL
RBC (24 h): 594.2 x10_4/ul
Ret (24 h): 8.2%
WBC (24 h): 102.3 x10_2/uL
KIDNEY_L (24 h): 0.9 g
KIDNEY_R (24 h): 0.9 g
KIDNEY_TOTAL (24 h): 1.8 g
LIVER (24 h): 9.3 g
A/G (24 h): 2.1
ALP (24 h): 972.2 IU/L
ALT (24 h): 43 IU/L
AST (24 h): 68.2 IU/L
BUN (24 h): 14 mg/dL
CRE (24 h): 0.5 mg/dL
Ca (24 h): 10.9 mg/dL
Cl (24 h): 106.2 meq/L
DBIL (24 h): 0.01 mg/dL
GLC (24 h): 190.8 mg/dL
IP (24 h): 8.4 mg/dL
K (24 h): 5.2 meq/L
LDH (24 h): 97.4 IU/L
Na (24 h): 137.8 meq/L
PL (24 h): 140.4 mg/dL
RALB (24 h): 3.8 g/dL
TBIL (24 h): 0.3 mg/dL
TC (24 h): 76.8 mg/dL
TG (24 h): 77.2 mg/dL
TP (24 h): 5.7 g/dL
gamma-GTP (24 h): 1 IU/L
